A value given as a limit tells only on which side of the number the result lay.

One assay addresses T1, human JAK1 (Homo sapiens, UniProt P23458).
T1 construct: The kinase domain of human JAK1 was amplified; GST (N); made in house; host or cells: Sf9 (Spodoptera frugiperda) insect cells, baculovirus
Description: JAK1 kinase enzyme assay (Alphascreen). As to conditions: 80 or 625 um ATP. The class given is biochemical. As for the experimental part: For screening purposes, compounds (in 100% DMSO) were warmed at 37 degrees for at least 20 minutes before use. A […] stock was initially made in assay buffer, where the final concentration of DMSO was 0.3%. The stocks were then diluted in 384 well Optiplates (Packard) where the final concentration of the compound was 5 μM.
The kinase domain of human JAK1 was amplified from U937mRNA using the polymerase chain reaction with the following primers: […]
The JAK1 PCR products were cloned into the pDest20 destination vector (Gibco). The JAK1 plasmid was then transformed into competent DH10Bac cells (Gibco), and the recombinant baculovirus was prepared via Sf9 insect cell transfection.
Baculovirus preparations from each of the JAK family members were infected into one litre of Sf9 (Spodoptera frugiperda) cells (Invitrogen) grown in SF900II serum free medium (Invitrogen) to a cell density of approximately 2×10^6 cells/ml. Cells were infected with virus at a cell culture to virus stock ratio of 20:1. Cells were harvested and lysed 48 hours post infection. The GST-tagged JAK kinase domains were purified by affinity chromatography on a GSH agarose column (Scientifix).
Kinase assays were performed in 384 well Optiplates (Packard) using an Alphascreen Protein Tyrosine KinaseP100 detection kit The compounds were pre-incubated with affinity purified PTK domain in the presence of phosphotyrosine assay buffer (10 mM HEPES, pH 7.5, 100 mM MgCl2, 25 mM NaCl, 200 mM sodium vanadate and 0.1% Tween 20) for 20 minutes. The compounds were then incubated with substrate in the presence of either 80 or 625 um ATP for 60 or 90 minutes. The substrate used was either susbtrate-1 with the sequence biotin-EGPWLEEEEEAYGWMDF-NH2 [SEQ. ID. NO. 13] (final concentration 111 μM) or susbtrate-2 substrate with the sequence biotin-EQEDEPEGDYFEWLEPE (final concentration 133 μM). Alphascreen phosphotyrosine acceptor beads followed by streptavidin donor beads at a concentration of 1/100 in stop buffer were added to each well under subdued light and incubated for 2-3 hours. The Alphascreen plates were read on a Packard Fusion Alpha instrument.
A general note: Bead proximity is the source of the signal in Alpha formats.

Another assay has as its target T2, human JAK2 (Homo sapiens, UniProt O60674).
T2 construct: The kinase domain of human JAK2 was amplified; GST (N); made in house; host or cells: Sf9 (Spodoptera frugiperda) insect cells, baculovirus
Description: JAK2 kinase enzyme assay (Alphascreen). The class given is biochemical. The settings on record: 80 or 625 um ATP. The gist of the method: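 Compounds at 5 μM final were pre-incubated 20 min with Sf9-expressed GST-JAK2 kinase domain in HEPES pH 7.5 phosphotyrosine buffer, then incubated 60 or 90 min with 80 or 625 um ATP. Substrate was biotinylated peptide 1 (111 μM final) or peptide 2 (133 μM final). Phosphotyrosine was detected by AlphaScreen acceptor/streptavidin donor beads after 2–3 h.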

In a further assay the target is T3, human JAK3 (Homo sapiens, UniProt P52333).
T3 construct: The kinase domain of human JAK3 was amplified; GST (N); made in house; host or cells: Sf9 (Spodoptera frugiperda) insect cells, baculovirus
Description: JAK3 kinase enzyme assay (Alphascreen). The settings on record: 80 or 625 um ATP. The assay is classed as biochemical. The gist of the method:
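Sf9-expressed GST-tagged human JAK3 kinase domain was pre-incubated 20 min with compound at 5 μM final in HEPES pH 7.5 buffer. Then 60 or 90 min reaction with 80 or 625 μM ATP and biotinylated peptide substrate at 111 or 133 μM. AlphaScreen phosphotyrosine acceptor and streptavidin donor beads, 2–3 h.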

For the next assay, the system named is BafT_J2. Description: Cellular screening, BaF3 TEL:JAK2 cells (Alamar Blue). The assay is classed as cell-based. As to conditions: Mus musculus, 40 hr incubation. The gist of the method:
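BaF3 cells expressing a TEL–JAK2 kinase-domain fusion, growth-factor independent, were exposed to compounds for 40 hr at 37° C, 5% CO2. Screening concentration was 20 μM in the dilution plate, added as 10× final. Viability read with Alamar Blue after a further 4-6 h, at 544 nm.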
(Resazurin is reduced to fluorescent resorufin, in cell work by metabolically active cells.)

The test system of another assay is BAF3wt. The assay can be described thus: Cellular screening, BaF3 wild-type cells (Alamar Blue). The class given is cell-based. The settings on record: Mus musculus, 40 hr incubation. In a few lines: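 BaF3 wild-type cells grown in DMEM with 10% FCS and 10% WEHI 3B conditioned medium, incubated with compound for 40 h at 37 °C, 5% CO2. Viability read by Alamar Blue after a further 4-6 h, at 544 nm; screening concentration 20 μM in dilution plate.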

The next assay relates to BafT_J3. The assay can be described thus: Cellular screening, BaF3 TEL:JAK3 cells (Alamar Blue). The assay is classed as cell-based. As to conditions: Mus musculus, 40 hr incubation. The gist of the method: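 Growth-factor-independent BaF3 tet-off cells express a TEL(nt 1–487)/JAK3 kinase-domain fusion and are grown without WEHI 3B medium. Compound plates were prepared at 20 μM and added as 10× final. After 40 h at 37 °C, 5% CO2, Alamar Blue was added for 4–6 h and read at 544 nm.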

For a further assay, the system named is CTLL2. Description: Cellular screening, CTLL2 cells (Alamar Blue). The assay is classed as cell-based. The settings on record: Mus musculus, CTLL-2, 40 hr incubation. The gist of the method:
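CTLL2 cells in late log phase were incubated with compounds, from screening plates at 20 μM, for 40 hr at 37° C, 5% CO2. Viability was read by Alamar Blue, added for a further 4-6 hours, with the read at 544 nm.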

T2 sequence (O60674 849-1124 limits assumed): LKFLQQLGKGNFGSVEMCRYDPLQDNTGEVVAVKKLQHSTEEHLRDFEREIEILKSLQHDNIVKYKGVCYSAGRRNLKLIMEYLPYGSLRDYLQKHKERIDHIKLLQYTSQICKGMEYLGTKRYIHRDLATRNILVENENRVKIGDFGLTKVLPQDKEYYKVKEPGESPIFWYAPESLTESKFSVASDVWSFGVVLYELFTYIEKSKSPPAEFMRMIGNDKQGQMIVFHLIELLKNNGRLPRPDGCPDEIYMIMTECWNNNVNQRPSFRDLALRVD
T1 sequence (P23458 875-1153 limits assumed): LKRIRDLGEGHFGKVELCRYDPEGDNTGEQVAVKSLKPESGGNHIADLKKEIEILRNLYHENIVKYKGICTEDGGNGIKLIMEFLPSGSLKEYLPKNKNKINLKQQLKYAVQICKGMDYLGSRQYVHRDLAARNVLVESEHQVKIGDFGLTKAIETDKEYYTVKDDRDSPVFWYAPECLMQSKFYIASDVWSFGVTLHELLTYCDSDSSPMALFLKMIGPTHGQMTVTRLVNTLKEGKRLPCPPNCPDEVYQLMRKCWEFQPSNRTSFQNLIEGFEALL
T3 sequence (P52333 822-1111 limits assumed): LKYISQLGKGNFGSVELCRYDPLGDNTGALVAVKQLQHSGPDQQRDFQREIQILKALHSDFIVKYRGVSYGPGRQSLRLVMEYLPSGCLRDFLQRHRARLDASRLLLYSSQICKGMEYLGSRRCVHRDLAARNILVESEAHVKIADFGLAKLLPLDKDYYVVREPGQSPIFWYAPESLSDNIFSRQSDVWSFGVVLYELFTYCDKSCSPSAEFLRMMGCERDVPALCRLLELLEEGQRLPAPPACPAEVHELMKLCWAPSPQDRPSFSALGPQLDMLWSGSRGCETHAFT

Usually IC50 stands for the point on the concentration scale where inhibition reaches its midpoint. Turning to `CC(C)(C)NS(=O)(=O)c1cccc(-c2csc3cnc(Nc4cccc(CO)c4)nc23)c1` [Compound 48, N-tert-butyl-3-(2-(3-(hydroxymethyl)phenylamino)thieno[3,2-d]pyrimidin-7-yl)benzenesulfonamide], the IC50 against human JAK1 is below 100 nM; against human JAK2, below 100 nM; on human JAK3, below 500 nM; with BafT_J2, below 1000 nM; with BAF3wt, below 1000 nM; with BafT_J3 it was below 1000 nM. In the assay with CTLL2, the half-maximal inhibitory concentration (IC50) was below 1000 nM.
With `N#CCC(=O)Nc1cccc(-c2csc3cnc(Nc4ccc(N5CCOCC5)cc4)nc23)c1` [Compound 16, 2-cyano-N-(3-(2-(4-morpholinophenylamino)thieno[3,2-d]pyrimidin-7-yl)phenyl)acetamide], the 50% inhibitory concentration (IC50) at human JAK1 was below 100 nM; against human JAK2 it was below 100 nM; at human JAK3 it was below 100 nM; in the assay on BafT_J2, below 1000 nM; in the assay with BAF3wt, below 1000 nM; in the assay on BafT_J3 it was below 1000 nM. In the assay with CTLL2, this compound returned an IC50 below 1000 nM.
Consider `CCNC(=O)Nc1ccc(-c2csc3cnc(Nc4ccc(N5CCOCC5)cc4)nc23)cc1OC` [Compound 13, 1-ethyl-3-(2-methoxy-4-(2-(4-morpholinophenylamino)thieno[3,2-d]pyrimidin-7-yl)phenyl)urea], for which the concentration for half-maximal inhibition (IC50) against human JAK1 was below 500 nM; at human JAK2, below 100 nM; against human JAK3 it was below 100 nM; in the assay with BafT_J2, below 1000 nM; with BAF3wt it was below 1000 nM; in the assay with BafT_J3, below 5000 nM. In the assay with CTLL2, this compound showed a 50% inhibitory concentration (IC50) below 5000 nM.
With `CC(C)(C)NS(=O)(=O)c1cccc(-c2csc3cnc(Nc4cccc(N5CCOCC5)c4)nc23)c1` [Compound 47, N-tert-butyl-3-(2-(3-morpholinophenylamino)thieno[3,2-d]pyrimidin-7-yl)benzenesulfonamide], the IC50 at human JAK1 is below 100 nM; at human JAK2, below 100 nM; on human JAK3, below 500 nM; with BafT_J2, below 5000 nM; in the assay with BAF3wt it was below 5000 nM; in the assay on BafT_J3, below 5000 nM. Besides, the concentration for half-maximal inhibition (IC50) with CTLL2 was below 5000 nM.
On to `CS(=O)(=O)Nc1cccc(-c2csc3cnc(Nc4ccc(N5CCOCC5)cc4)nc23)c1` [Compound 18, N-(3-(2-(4-morpholinophenylamino)thieno[3,2-d]pyrimidin-7-yl)phenyl)methanesulfonamide], for which the concentration for half-maximal inhibition (IC50) on human JAK1 was below 100 nM; on human JAK2, below 100 nM; against human JAK3, below 100 nM; in the assay on BafT_J2, below 1000 nM; in the assay with BAF3wt it was below 1000 nM; in the assay on BafT_J3, below 1000 nM. The same compound returned a concentration for half-maximal inhibition (IC50) in the assay with CTLL2 below 1000 nM.

The values above are taken from patent US8765755B2, “N-containing heterocyclic compounds” (YM Biosciences Australia Pty Ltd, priority 2007, dated 2014).
